# What was measured:
# [1] = system: LAT; assay: Phosphorylation of LAT (phospho-specific antibodies); assay type: cell-based, rat; conditions: dose-dependent, RBL-2H3 cells
# [2] = system: Syk mutants (Arg 68, Glu 121, Glu 155); assay: Binding of G4G11 with Syk mutants in the ADA method; set-up: species or system murine; conditions: 5 μM of C-13
# From the text: On the basis of this information and the known 3D structure of the peptide complex formed by the SH2 domains of Syk and ITAM motifs^17, the inventors used computing approaches to locate a putative binding site for C-13. A candidate cavity comprising the residues Ser 9, Gln 43, Phe 51, Ile 66, Glu 67, Arg 68, Glu 69, Leu 70, Asn 71, Gly 72, Thr 73, Tyr 74, Ala 75, Glu 121 and Glu 155 of human Syk protein (see FIG. 8A, SEQ ID No. 1) and situated in the vicinity of the G4G11 epitope was identified (FIG. 1C). A structural analysis specified that the residues Ser 9, Gln 43, Phe 51, Arg 68, Glu 121 and Glu 155 could be involved in the binding of the ligand, and could be mutated without impairing the 3D structure of the protein. To validate the cavity in more detail, these six amino acids were mutated individually and the Syk mutants were subjected to the ADA test.
# • 1) Chemical products and antibodies. […] The binding of G4G11 with Syk was assessed by adding the 9E10 monoclonal antibody conjugated with HRP detecting the amino acid sequence EQKLISEEDLN of human c-myc protein located at the C-terminal end of the scFv fragment. To generate Syk mutants, targeted mutagenesis was used on GST:Syk 6-242 protein and the binding of G4G11 with the mutants was assessed in the presence of 5 μM of C-13. • 3) Cells, culture conditions and functional tests. […]
compound,measurement,setting,value
"COC(=O)c1ccccc1-c1ccc(/C=C2/SC(=S)N(Cc3ccccc3)C2=O)o1 [Molecule C-13, methyl 2-{5-[(3-benzyl-4-oxo-2-thioxo-1,3-thiazolidin-5-ylidene)methyl]-2-furyl}benzoate]",phosphorylation of LAT,[1],increases
same,"effect of mutation of Arg 68, Glu 121 and Glu 155 of Syk on inhibition of G4G11 binding",[2],cancelled the inhibition

# Reference: patent US9504676B2, “Molecules inhibiting a metabolic pathway involving the Syk protein tyrosine kinase and method for identifying said molecules” (CENTRE NATIONAL DE LA RECHERCHE SCIENTIFIQUE, priority 2008, dated 2016)
